This is an account of results in patent US10077261B2, “Imidazolin-5-one derivative useful as FASN inhibitors for the treatment of cancer” (Janssen Pharmaceutica NV, priority 2012, dated 2018).

A value given as a limit tells only on which side of the number the result lay.

Test [1] deals with T1, hFASN enzyme (full length) (Homo sapiens, UniProt P49327).
T1 construct: 10 μL hFASN enzyme (full length, 300 ng, purified in house); made in house
The experiment in a line: Fatty Acid Synthase (FASN) inhibition scintillation proximity assay. It is filed as biochemical. Particulars: for inhibition at 10 µM: read-out: Human FASN % inhibition @ 10 μM, 10 μM test compound; for IC50: read-out: Human FASN pIC50 (converted). Put shortly: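 Full-length in-house purified enzyme (300 ng) was tested in 100 mM KH2PO4 pH 7.5, 1 mM DTT with ³H-acetyl-CoA and malonyl-CoA as substrates; compounds ranged 0.01–30 μM. Reactions were stopped with streptavidin imaging beads, read by LEADseeker at 610 nm, and fitted to a 4-parameter logistic curve.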
In general terms: In a scintillation proximity assay essentially only radioactivity close to the scintillant gives light.

Test [2] has as its system A2780 ovarian cells. In words: A2780 ovarian cell proliferation assay in lipid reduced medium, with palmitate (MTT). It is filed as cell-based. Conditions: Homo sapiens, A2780, 96 h; read-out: pIC50 A2780 Ovarian Cell, With Palmitate (converted). Put shortly: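 Seeded cells were switched next day to lipid-reduced serum, exposed to compound and 25 μM palmitate complexed with fatty-acid-free BSA, and incubated 96 h. Proliferation was then determined by MTT absorbance at 544 nm, with a best-fit curve of signal against concentration.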

In test [3] the test system is A2780 ovarian cells. The experiment in a line: A2780 ovarian cell proliferation assay in lipid reduced medium, without palmitate (MTT). It is filed as cell-based. Particulars: Homo sapiens, A2780, 96 h; read-out: pIC50 A2780 Ovarian Cell, Without Palmitate (converted).
Test [4] concerns LNCaP-Vancouver prostate cells. The experiment in a line: In vitro LNCaP Vancouver prostate cell proliferation assay in lipid reduced medium. Type of test: cell-based. Conditions: read-out: pIC50 LNCaP_Vancouver prostate cell (converted).
Test [5] relates to PC-3M-Luc-C6 prostate cells. The experiment in a line: In vitro PC-3M-Luc-C6 prostate cell proliferation assay in lipid reduced medium. It is filed as cell-based. Particulars: 96 h, read-out: pIC50 PC-3M-Luc-C6 prostate cell (converted).
Test [6] deals with Fatty Acid Synthase Keto-reductase Domain (FASN KR) (Homo sapiens, UniProt P49327). In words: Fatty Acid Synthase keto-reductase domain (FASN KR) inhibition, NADPH oxidation at 340 nm.
Chain of Fatty Acid Synthase Keto-reductase Domain (FASN KR) (P49327 whole entry, the tested form may be a part): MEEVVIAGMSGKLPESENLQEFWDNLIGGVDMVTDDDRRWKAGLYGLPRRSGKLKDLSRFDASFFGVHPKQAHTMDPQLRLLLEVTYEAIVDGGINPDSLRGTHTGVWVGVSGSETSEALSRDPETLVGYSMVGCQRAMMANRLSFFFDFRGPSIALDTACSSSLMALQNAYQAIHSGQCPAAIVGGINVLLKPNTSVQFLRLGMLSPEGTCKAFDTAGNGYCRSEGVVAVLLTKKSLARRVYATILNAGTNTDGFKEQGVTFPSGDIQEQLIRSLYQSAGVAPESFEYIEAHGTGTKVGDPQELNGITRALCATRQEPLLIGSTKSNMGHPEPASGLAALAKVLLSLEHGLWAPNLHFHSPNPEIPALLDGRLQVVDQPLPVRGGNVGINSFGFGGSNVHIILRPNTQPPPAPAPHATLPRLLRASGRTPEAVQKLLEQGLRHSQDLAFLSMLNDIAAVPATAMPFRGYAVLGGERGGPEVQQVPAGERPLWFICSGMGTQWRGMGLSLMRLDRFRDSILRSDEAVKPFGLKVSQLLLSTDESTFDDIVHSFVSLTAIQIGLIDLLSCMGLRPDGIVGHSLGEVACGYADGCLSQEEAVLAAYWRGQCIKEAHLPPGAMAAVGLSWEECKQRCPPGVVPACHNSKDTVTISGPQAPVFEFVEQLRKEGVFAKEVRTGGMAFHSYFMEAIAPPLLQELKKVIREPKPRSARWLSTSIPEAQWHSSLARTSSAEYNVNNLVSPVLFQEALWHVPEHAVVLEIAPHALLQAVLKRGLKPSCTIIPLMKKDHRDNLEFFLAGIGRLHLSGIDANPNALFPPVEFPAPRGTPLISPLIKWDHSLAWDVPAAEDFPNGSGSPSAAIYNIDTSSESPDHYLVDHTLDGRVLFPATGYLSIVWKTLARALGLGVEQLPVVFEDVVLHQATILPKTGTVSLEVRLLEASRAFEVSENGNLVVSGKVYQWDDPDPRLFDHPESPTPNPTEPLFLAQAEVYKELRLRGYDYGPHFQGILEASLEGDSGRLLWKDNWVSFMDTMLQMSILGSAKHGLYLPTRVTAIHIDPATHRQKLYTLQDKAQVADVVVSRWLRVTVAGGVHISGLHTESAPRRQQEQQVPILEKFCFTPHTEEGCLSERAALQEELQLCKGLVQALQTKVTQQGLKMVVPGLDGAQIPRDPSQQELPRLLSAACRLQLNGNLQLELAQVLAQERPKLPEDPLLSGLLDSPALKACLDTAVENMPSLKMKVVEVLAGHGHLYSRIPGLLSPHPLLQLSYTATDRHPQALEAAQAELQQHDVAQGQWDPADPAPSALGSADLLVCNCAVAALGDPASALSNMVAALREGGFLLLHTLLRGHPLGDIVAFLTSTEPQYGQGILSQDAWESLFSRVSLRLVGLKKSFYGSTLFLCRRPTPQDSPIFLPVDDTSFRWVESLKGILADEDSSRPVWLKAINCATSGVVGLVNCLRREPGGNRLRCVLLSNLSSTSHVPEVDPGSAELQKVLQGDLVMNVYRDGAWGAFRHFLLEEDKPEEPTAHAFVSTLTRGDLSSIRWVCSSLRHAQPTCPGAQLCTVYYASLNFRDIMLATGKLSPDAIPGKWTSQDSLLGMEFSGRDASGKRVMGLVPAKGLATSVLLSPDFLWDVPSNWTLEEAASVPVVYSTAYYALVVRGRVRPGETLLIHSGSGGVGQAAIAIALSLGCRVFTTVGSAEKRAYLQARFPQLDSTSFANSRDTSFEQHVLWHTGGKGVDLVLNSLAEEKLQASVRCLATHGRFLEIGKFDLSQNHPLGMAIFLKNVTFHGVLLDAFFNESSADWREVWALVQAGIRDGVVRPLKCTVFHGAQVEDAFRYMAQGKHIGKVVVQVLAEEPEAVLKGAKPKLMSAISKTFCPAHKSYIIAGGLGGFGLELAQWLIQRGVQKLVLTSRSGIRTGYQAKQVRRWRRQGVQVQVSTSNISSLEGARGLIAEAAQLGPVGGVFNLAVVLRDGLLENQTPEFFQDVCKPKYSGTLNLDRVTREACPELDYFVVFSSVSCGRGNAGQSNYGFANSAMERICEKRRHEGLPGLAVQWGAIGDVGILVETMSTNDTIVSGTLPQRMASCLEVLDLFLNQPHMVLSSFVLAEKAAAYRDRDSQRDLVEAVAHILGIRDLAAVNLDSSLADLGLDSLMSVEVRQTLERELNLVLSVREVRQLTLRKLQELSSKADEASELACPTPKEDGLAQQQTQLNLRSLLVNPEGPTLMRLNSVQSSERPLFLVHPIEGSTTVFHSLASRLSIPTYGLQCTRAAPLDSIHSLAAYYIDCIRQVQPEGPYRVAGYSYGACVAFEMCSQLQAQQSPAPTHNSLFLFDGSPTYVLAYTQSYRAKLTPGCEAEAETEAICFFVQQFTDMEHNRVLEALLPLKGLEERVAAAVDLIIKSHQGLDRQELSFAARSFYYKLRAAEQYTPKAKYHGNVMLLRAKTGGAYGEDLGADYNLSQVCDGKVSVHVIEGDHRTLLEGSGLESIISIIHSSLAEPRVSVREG
Protocol: After 20 minutes incubation at room temperature the plate was measured again (T2).
The decrease in absorbance was calculated as (Absorbance before incubation T1)−(Absorbance following incubation T2).
A plot of Controlmin versus test compound concentration was fitted to a 4-parameter logistic curve using a non-linear least squares regression method.

T1 sequence (P49327 whole entry): as the sequence (P49327 whole entry, the tested form may be a part) above

As usually defined, the inhibition is the change of the read-out against control, counted positive when it falls. For `O=C(C1CC1)N1CC[C@@H](CN2C(=O)C3(CCCC3)N=C2c2ccc(-c3ccc4cccnc4c3)cc2F)C1` [compound 875, (R)-3-((1-(cyclopropanecarbonyl)pyrrolidin-3-yl)methyl)-2-(2-fluoro-4-(quinolin-7-yl)phenyl)-1,3-diazaspiro[4.4]non-1-en-4-one], in test [1], the inhibition at 10 µM turned out to be 104%. For the same compound, the IC50 in test [1] is 0.0251 µM; in test [2], more than 10 µM; in test [3], 0.0135 µM; in test [4] it was 0.0871 µM; in test [5], 0.0105 µM; in test [6] it was 0.0288 µM.
Consider `O=C(C1CC1)N1CC[C@@H](CN2C(=O)C3(CCCC3)N=C2c2ccc(-c3ccc4sccc4c3)cc2F)C1` [compound 876], for which the inhibition at 10 µM in test [1] came to 105%. Besides, the IC50 in test [1] is 0.0309 µM; in test [2], more than 10 µM; in test [3], 0.229 µM; in test [4], 0.617 µM; in test [5] it was 0.12 µM; in test [6] it was 0.0363 µM.
Take `O=C(C1CC1)N1CC[C@@H](CN2C(=O)C3(CCCC3)N=C2c2ccc(-c3ccc4[nH]cnc4c3)cc2F)C1` [compound 877, (R)-2-(4-(1H-benzo[d]imidazol-5-yl)-21-fluorophenyl)-3-((1-(cyclopropanecarbonyl)pyrrolidin-3-yl)methyl)-1,3-diazaspiro[4.4]non-1-en-4-one]: the inhibition at 10 µM in test [1] was found to be 103%. In addition, the IC50 in test [1] is 0.0339 µM; in test [2], more than 10 µM; in test [3], 0.0214 µM; in test [4], approximately 0.407 µM; in test [5], 0.0457 µM; in test [6] it was 0.0741 µM.
Turning to `O=C(C1CC1)N1CC[C@@H](CN2C(=O)C3(CCCC3)N=C2c2ccc(-c3ccc4cn[nH]c4c3)cc2F)C1` [compound 879, (R)-3-((1-(cyclopropanecarbonyl)pyrrolidin-3-yl)methyl)-2-(2-fluoro-4-(1H-indazol-6-yl)phenyl)-1,3-diazaspiro[4.4]non-1-en-4-one], in test [1], the inhibition at 10 µM is 104%. Moreover, the IC50 in test [1] is 0.0417 µM; in test [2], more than 10 µM; in test [3], 0.0251 µM; in test [4] it was 0.38 µM; in test [5] it was 0.0309 µM; in test [6] it was 0.055 µM.
For `Cn1ncc2cc(-c3ccc(C4=NC5(CCCC5)C(=O)N4C[C@@H]4CCN(C(=O)C5CC5)C4)c(F)c3)ccc21` [compound 880, (R)-3-((1-(cyclopropanecarbonyl)pyrrolidin-3-yl)methyl)-2-(2-fluoro-4-(1-methyl-1H-indazol-5-yl)phenyl)-1,3-diazaspiro[4.4]non-1-en-4-one], in test [1], the inhibition at 10 µM turned out to be 101%. The IC50 in test [1] is 0.0794 µM; in test [2], more than 10 µM; in test [3] it was 0.0661 µM; in test [4], 0.646 µM; in test [5], 0.117 µM; in test [6] it was 0.112 µM.
Consider `Cc1cc(-c2ccc3c(c2)CCO3)ccc1C1=NC2(CCCC2)C(=O)N1C[C@@H]1CCN(C(=O)C2CC2)C1` [compound 884, (R)-3-((1-(cyclopropanecarbonyl)pyrrolidin-3-yl)methyl)-2-(4-(2,3-dihydrobenzofuran-5-yl)-2-methylphenyl)-1,3-diazaspiro[4.4]non-1-en-4-one], for which the inhibition at 10 µM in test [1] was found to be 100%. Also, the IC50 in test [1] was 0.288 µM; in test [2] it was more than 10 µM; in test [3] it was approximately 2.14 µM; in test [4] it was 3.02 µM; in test [5], approximately 1.82 µM; in test [6] it was 0.741 µM.
Regarding `O=C(C1CC1)N1CC[C@@H](CN2C(=O)C3(CCCC3)N=C2c2ccc(-c3ccc4[nH]c(=O)[nH]c4c3)cc2F)C1` [compound 885, (R)-5-(4-(3-((1-(cyclopropanecarbonyl)pyrrolidin-3-yl)methuyl)-4-oxo-1,3-diazaspiro[4.4]non-1-en-2-yl)-3-fluorophenyl)-1H-benzo[d]imidazol-2(3H)-one], in test [1], the inhibition at 10 µM was found to be 98%. Moreover, the IC50 is 0.309 µM in test [1]; more than 10 µM in test [2]; approximately 2.24 µM in test [3]; more than 10 µM in test [4]; approximately 2.63 µM in test [5]; 0.49 µM in test [6].
